The values below are quoted from earlier work in patent publication US20070104792A1, “Nanoparticulate tadalafil formulations” (Elan Pharma International, Limited, priority 2005, published 2007).

The structures appear in SMILES notation.

For the series the following is noted: conventional crystalline solid.

As to `CN1CC(=O)N2[C@H](c3ccc4c(c3)OCO4)c3[nH]c4ccccc4c3C[C@@H]2C1=O` [tadalafil, pyrazino[1′,2′:1,6]pyrido[3,4-b]indole-1,4-dione, 6-(1,3-benzodioxol-5-yl)-2,3,6,7,12,12a-hexahydro-2-methyl-, (6R,12aR)], the Solubility in ethanol entry (ethanol) is “very slightly soluble in ethanol”. In addition, the Solubility in water entry (water) is recorded as “practically insoluble in water”.
